Measurements: the Kinase Knowledgebase extract (Sharma et al. 2016)

Molecular target: PIK3CG (human) (UniProt P48736)
Test: Assessment of PIK3CG Kinase Activity

Chain of PIK3CG (human) (P48736 whole entry, looked up): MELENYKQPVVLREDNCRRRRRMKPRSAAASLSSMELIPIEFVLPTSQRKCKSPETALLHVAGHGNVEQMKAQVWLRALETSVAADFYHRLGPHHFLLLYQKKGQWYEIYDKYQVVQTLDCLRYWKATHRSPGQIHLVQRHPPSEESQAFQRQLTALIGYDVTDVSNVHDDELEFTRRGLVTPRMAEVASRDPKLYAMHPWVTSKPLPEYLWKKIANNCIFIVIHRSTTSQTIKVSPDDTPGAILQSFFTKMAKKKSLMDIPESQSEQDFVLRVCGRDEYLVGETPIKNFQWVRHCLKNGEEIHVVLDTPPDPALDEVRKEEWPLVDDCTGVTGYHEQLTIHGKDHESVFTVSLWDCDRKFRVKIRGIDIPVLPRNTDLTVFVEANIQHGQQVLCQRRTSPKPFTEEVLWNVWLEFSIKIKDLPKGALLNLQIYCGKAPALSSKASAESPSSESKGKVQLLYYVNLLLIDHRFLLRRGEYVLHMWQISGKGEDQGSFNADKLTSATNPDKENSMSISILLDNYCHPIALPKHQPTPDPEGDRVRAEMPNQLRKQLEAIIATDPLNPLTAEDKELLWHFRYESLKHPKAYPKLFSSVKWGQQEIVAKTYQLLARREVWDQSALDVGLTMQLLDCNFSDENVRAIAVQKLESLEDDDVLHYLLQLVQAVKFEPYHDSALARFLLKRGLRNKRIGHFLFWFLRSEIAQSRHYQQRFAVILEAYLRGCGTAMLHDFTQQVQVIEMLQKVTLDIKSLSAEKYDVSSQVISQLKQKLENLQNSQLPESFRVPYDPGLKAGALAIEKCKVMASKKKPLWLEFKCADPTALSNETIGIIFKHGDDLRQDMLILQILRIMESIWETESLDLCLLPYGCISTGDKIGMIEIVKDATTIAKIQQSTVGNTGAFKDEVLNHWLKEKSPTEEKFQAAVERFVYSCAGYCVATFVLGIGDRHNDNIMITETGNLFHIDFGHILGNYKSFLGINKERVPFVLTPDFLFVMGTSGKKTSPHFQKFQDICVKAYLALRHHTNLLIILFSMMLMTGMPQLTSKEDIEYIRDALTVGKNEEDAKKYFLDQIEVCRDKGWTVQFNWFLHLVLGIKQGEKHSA

IC50 [nM] | Structure (SMILES)
< 800 | CNC(=O)[C@@H](C)NC(=O)Nc1nc2c(s1)-c1c(c(-c3ccccc3)nn1-c1ccccc1Cl)CC2
< 800 | CCc1nnc(CCNC(=O)Nc2nc3c(s2)-c2c(c(-c4ccccc4)nn2-c2cccc(Cl)c2)CC3)o1
< 800 | CN(C)C(=O)CNC(=O)Nc1nc2c(s1)-c1c(c(-c3ccccc3)nn1-c1ccccc1Cl)CC2
< 800 | CC(C)(C)COC(=O)N1CCC[C@@H]1CNC(=O)Nc1nc2c(s1)-c1c(c(-c3cncnc3)nn1-c1ccccc1Cl)CC2
< 800 | CNC(=O)c1cccc(CNC(=O)Nc2nc3c(s2)-c2c(c(C4CC4)nn2-c2ccccc2Cl)CC3)c1
< 800 | O=C(NCCc1ccc2c(c1)OCCO2)Nc1nc2c(s1)-c1c(c(-c3cncnc3)nn1-c1ccccc1Cl)CC2
< 800 | O=C(NCc1cc(CN2CCOCC2)ccn1)Nc1nc2c(s1)-c1c(c(-c3cncnc3)nn1-c1ccccc1Cl)CC2
< 800 | CN1CCC(n2nc(-c3cccnc3)c3c2-c2sc(NC(=O)NCc4cccc(N5CCNC5=O)c4)nc2CC3)CC1
< 800 | O=C(NCCc1nc(C2CC2)no1)Nc1nc2c(s1)-c1c(c(C3CC3)nn1-c1ccccc1Cl)CC2
< 800 | CCc1csc(CCNC(=O)Nc2nc3c(s2)-c2c(c(-c4ccccc4)nn2-c2cccc(Cl)c2)CC3)n1
< 800 | CN1CCN(C(=O)Nc2nc3c(s2)-c2c(cnn2-c2ccccc2)CC3)CC1
< 800 | O=C(NCCC(=O)N1CCOCC1)Nc1nc2c(s1)-c1c(c(-c3ccccc3)nn1-c1ccccc1Cl)CC2
< 800 | O=C(O)CC1(CNC(=O)Nc2nc3c(s2)-c2c(c(-c4cccnc4)nn2-c2ccccc2Cl)CC3)CCCCC1
< 800 | CCn1cnc(CCNC(=O)Nc2nc3c(s2)-c2c(c(-c4ccccc4)nn2-c2cccc(Cl)c2)CC3)c1
< 800 | CC(C)c1noc(CCNC(=O)Nc2nc3c(s2)-c2c(c(-c4cncnc4)nn2-c2ccccc2Cl)CC3)n1
< 800 | O=C(NC[C@H]1CCNC1)Nc1nc2c(s1)-c1c(c(-c3ccccc3)nn1-c1cccc(Cl)c1)CC2
< 800 | CCCn1cnc(CCNC(=O)Nc2nc3c(s2)-c2c(c(-c4cncnc4)nn2-c2ccccc2Cl)CC3)c1
< 800 | C[C@H](NC(=O)Nc1nc2c(s1)-c1c(c(-c3ccccc3)nn1-c1ccccc1Cl)CC2)C(=O)N1CCOCC1
< 800 | CS(=O)(=O)Nc1ccc(NC(=O)Nc2nc3c(s2)-c2c(c(-c4ccccc4)nn2-c2ccccc2Cl)CC3)cc1
< 800 | CNC(=O)Nc1nc2c(s1)-c1c(c(-c3ccccc3)nn1-c1ccccc1Cl)CC2
< 800 | COC(=O)CCNC(=O)Nc1nc2c(s1)-c1c(c(-c3cncnc3)nn1-c1ccccc1Cl)CC2

IC50 [nM] | Structure (SMILES)
< 800 | COc1cccc(CCNC(=O)Nc2nc3c(s2)-c2c(c(-c4cncnc4)nn2-c2ccccc2Cl)CC3)c1OC
< 800 | O=C(NCc1cccc(N2CCNC2=O)c1)Nc1nc2c(s1)-c1c(c(-c3cccnc3)nn1C1CCN(C3CCCC3)CC1)CC2
< 800 | CCN1CCC[C@H]1CNC(=O)Nc1nc2c(s1)-c1c(c(-c3cccnc3)nn1-c1ccccc1Cl)CC2
< 800 | COc1cccc(CNC(=O)Nc2nc3c(s2)-c2c(c(-c4cncnc4)nn2-c2ccccc2Cl)CC3)c1
< 800 | CCN(CC)CCNC(=O)Nc1nc2c(s1)-c1c(c(-c3cncnc3)nn1-c1ccccc1F)CC2
< 800 | O=C(NC[C@H]1CCN(C(=O)N2CCCC2)C1)Nc1nc2c(s1)-c1c(c(-c3ccccc3)nn1-c1cccc(Cl)c1)CC2
< 800 | CN1CCN(C(=O)N2CCC[C@@H]2CNC(=O)Nc2nc3c(s2)-c2c(c(-c4cncnc4)nn2-c2ccccc2Cl)CC3)CC1
< 800 | NC(=O)Nc1nc2c(s1)-c1c(c(-c3cncnc3)nn1-c1ccccc1F)CC2
< 800 | CC(C)(C)OC(=O)N1CCCC(CNC(=O)Nc2nc3c(s2)-c2c(c(-c4cccnc4)nn2-c2ccccc2Cl)CC3)C1 (stereo unspecified)
< 800 | CC(C)(C)OC(=O)CCNC(=O)Nc1nc2c(s1)-c1c(c(-c3ccccc3)nn1-c1ccccc1Cl)CC2
< 800 | CC(C)(C)OC(=O)Nc1cccc(CNC(=O)Nc2nc3c(s2)-c2c(c(-c4cccnc4)nn2-c2ccccc2Cl)CC3)c1
< 800 | CN1CCC(n2nc(-c3cccnc3)c3c2-c2sc(NC(=O)NCCC(=O)N(C)C)nc2CC3)CC1
< 800 | CCc1noc(CCNC(=O)Nc2nc3c(s2)-c2c(c(-c4cccnc4)nn2C2CCN(C)CC2)CC3)n1
< 800 | CS(=O)(=O)Nc1cccc(NC(=O)Nc2nc3c(s2)-c2c(c(-c4ccccc4)nn2-c2ccccc2Cl)CC3)c1
< 800 | O=C(NCCC(=O)N1CCCC1)Nc1nc2c(s1)-c1c(c(-c3cncnc3)nn1-c1ccccc1Cl)CC2
< 800 | CCc1nnc(CCNC(=O)Nc2nc3c(s2)-c2c(c(C4CC4)nn2-c2ccccc2Cl)CC3)o1
< 800 | CCc1cnc(CCNC(=O)Nc2nc3c(s2)-c2c(c(-c4cccnc4)nn2C2CCN(C)CC2)CC3)o1
< 800 | CN(C)C(=O)CNC(=O)Nc1nc2c(s1)-c1c(c(C3CC3)nn1-c1ccccc1Cl)CC2
< 800 | O=C(NCCn1ccnc1)Nc1nc2c(s1)-c1c(c(-c3cncnc3)nn1-c1ccccc1Cl)CC2
< 800 | CC(C)(CNc1ncccn1)NC(=O)Nc1nc2c(s1)-c1c(c(-c3cccnc3)nn1-c1ccccc1Cl)CC2
< 800 | CC(=O)N(C)c1cccc(CNC(=O)Nc2nc3c(s2)-c2c(c(-c4cccnc4)nn2-c2ccccc2Cl)CC3)c1

IC50 [nM] | Structure (SMILES)
< 800 | CC(NC(=O)Nc1nc2c(s1)-c1c(c(-c3cccnc3)nn1-c1ccccc1Cl)CC2)c1cccc(NC(=O)OC(C)(C)C)c1 (stereo unspecified)
< 800 | CN(C(=O)OC(C)(C)C)C1CCN(C(=O)Nc2nc3c(s2)-c2c(c(-c4cccnc4)nn2-c2ccccc2Cl)CC3)C1 (stereo unspecified)
< 800 | O=C1CCC(NC(=O)Nc2nc3c(s2)-c2c(c(-c4cccnc4)nn2-c2ccccc2Cl)CC3)C(c2ccccc2)N1 (stereo unspecified)
< 800 | CC(C)c1cccc(CNC(=O)Nc2nc3c(s2)-c2c(c(C4CC4)nn2-c2ccccc2Cl)CC3)c1
< 800 | CNC(=O)Nc1nc2c(s1)-c1c(c(-c3ccccc3)nn1-c1cccc(Cl)c1)CC2
< 800 | CN(C)C(=O)Nc1nc2c(s1)-c1c(c(-c3cccnc3)nn1-c1ccccc1Cl)CC2
< 800 | CN(C)C(=O)Nc1nc2c(s1)-c1c(c(-c3cncnc3)nn1-c1ccccc1F)CC2
< 800 | CN1CCC(O)C2(CCCN(C(=O)Nc3nc4c(s3)-c3c(c(-c5cccnc5)nn3-c3ccccc3Cl)CC4)C2)C1 (stereo unspecified)
< 800 | O=C(NCCc1nc(C2CC2)no1)Nc1nc2c(s1)-c1c(c(-c3cncnc3)nn1-c1ccccc1Cl)CC2
< 800 | NC(=O)c1ccc(CNC(=O)Nc2nc3c(s2)-c2c(c(-c4cncnc4)nn2-c2ccccc2Cl)CC3)cc1
< 800 | CCOC(=O)N1CC[C@H](CNC(=O)Nc2nc3c(s2)-c2c(c(-c4cncnc4)nn2-c2ccccc2Cl)CC3)C1
< 800 | CN1CCN(CCNC(=O)Nc2nc3c(s2)-c2c(c(-c4cncnc4)nn2-c2ccccc2Cl)CC3)CC1
< 800 | CC(=O)N(C)c1cccc(CNC(=O)Nc2nc3c(s2)-c2c(c(C4CC4)nn2-c2ccccc2Cl)CC3)c1
< 800 | CC(C)(CNc1ccc(C(C)(C)C)cc1)NC(=O)Nc1nc2c(s1)-c1c(c(-c3cccnc3)nn1-c1ccccc1Cl)CC2
< 800 | CN1CCC(C(=O)N2CCC[C@@H]2CNC(=O)Nc2nc3c(s2)-c2c(c(-c4cncnc4)nn2-c2ccccc2Cl)CC3)C1 (stereo partly specified)
< 800 | O=C1CCC(CNC(=O)Nc2nc3c(s2)-c2c(c(-c4cccnc4)nn2-c2ccccc2Cl)CC3)N1 (stereo unspecified)
< 800 | O=C(NCCn1cc[nH]c1=O)Nc1nc2c(s1)-c1c(c(-c3ccccc3)nn1-c1ccccc1Cl)CC2
< 800 | C[C@@H](NC(=O)Nc1nc2c(s1)-c1c(c(-c3ccccc3)nn1-c1ccccc1Cl)CC2)C(=O)N1CCOCC1
< 800 | CC(=O)N(C)c1cccc(CNC(=O)Nc2nc3c(s2)-c2c(c(-c4cccnc4)nn2C2CCN(C)CC2)CC3)c1
< 800 | O=C(NC[C@H]1CCNC1)Nc1nc2c(s1)-c1c(c(-c3cncnc3)nn1-c1ccccc1Cl)CC2
< 800 | CN(C)C(=O)CCNC(=O)Nc1nc2c(s1)-c1c(c(-c3ccccc3)nn1-c1ccccc1Cl)CC2

IC50 [nM] | Structure (SMILES)
< 800 | CC(C)(C)OC(=O)N1CCCC(CNC(=O)Nc2nc3c(s2)-c2c(c(-c4cncnc4)nn2-c2ccccc2Cl)CC3)C1 (stereo unspecified)
< 800 | CC(C)(C)OC(=O)CCNC(=O)Nc1nc2c(s1)-c1c(c(-c3ccccc3)nn1-c1cccc(Cl)c1)CC2
< 800 | CC(=O)Nc1cccc(CNC(=O)Nc2nc3c(s2)-c2c(c(-c4cccnc4)nn2C2CCN(C4CCCC4)CC2)CC3)c1
< 800 | CCc1nnc(CCNC(=O)Nc2nc3c(s2)-c2c(c(-c4cccnc4)nn2-c2ccccc2Cl)CC3)o1
< 800 | O=C(NC[C@H]1CCN(C(=O)N2CCCCC2)C1)Nc1nc2c(s1)-c1c(c(-c3cncnc3)nn1-c1ccccc1Cl)CC2
< 800 | CC(C)(C)OC(=O)N1CCCC1CNC(=O)Nc1nc2c(s1)-c1c(c(Nc3ccccn3)nn1-c1ccccc1)CC2 (stereo unspecified)
< 800 | COc1ccc(CCNC(=O)Nc2nc3c(s2)-c2c(c(-c4cncnc4)nn2-c2ccccc2Cl)CC3)cc1OC
< 800 | O=C(NCCCN1CCOCC1)Nc1nc2c(s1)-c1c(c(-c3cncnc3)nn1-c1ccccc1Cl)CC2
< 800 | CCn1cnc(CCNC(=O)Nc2nc3c(s2)-c2c(c(-c4ccccc4)nn2-c2ccccc2Cl)CC3)c1
< 800 | CC(C)c1nnc(CCNC(=O)Nc2nc3c(s2)-c2c(c(-c4cccnc4)nn2C2CCN(C)CC2)CC3)o1
< 800 | CC(C)(C)OC(=O)NCc1ccccc1NC(=O)Nc1nc2c(s1)-c1c(c(-c3cccnc3)nn1-c1ccccc1Cl)CC2
< 800 | O=C(NC[C@H]1CCCN1C(=O)OCc1ccccc1)Nc1nc2c(s1)-c1c(c(-c3cncnc3)nn1-c1ccccc1Cl)CC2
< 800 | O=C(NCCN1CCOCC1)Nc1nc2c(s1)-c1c(c(-c3cncnc3)nn1-c1ccccc1Cl)CC2
< 800 | CC(C)c1nnc(CCNC(=O)Nc2nc3c(s2)-c2c(c(C4CC4)nn2-c2ccccc2Cl)CC3)o1
< 800 | O=C(Nc1nc2c(s1)-c1c(c(-c3cccnc3)nn1-c1ccccc1Cl)CC2)N1CCCC(c2nc3ccccc3[nH]2)C1 (stereo unspecified)
< 800 | CC(C)(C)OCCNC(=O)Nc1nc2c(s1)-c1c(c(-c3ccccc3)nn1-c1ccccc1Cl)CC2
< 800 | O=C1CCC(CNC(=O)Nc2nc3c(s2)-c2c(c(-c4cncnc4)nn2-c2ccccc2Cl)CC3)N1 (stereo unspecified)
< 800 | O=C(NCCc1nc(C2CC2)no1)Nc1nc2c(s1)-c1c(c(-c3cccnc3)nn1-c1ccccc1Cl)CC2
